Source: patent EP0095295B1, “Cyclic peptide derivatives” (ELI LILLY AND COMPANY, priority 1982, dated 1987)

Legend:
[1] = solubility (listed characteristics); assay type: physicochemical; settings: water
[2] = fermentation medium, pH values above pH 7.2
From the text: In stirred fermentors the pH may be controlled by sensor controllers. Where this is impractical, such as in flask fermentors, pH may be controlled by adding 0.1 molar phosphate buffer to the medium prior to addition of the substrate.

acute toxicity in mice = assay type: in vivo; settings: administered intravenously to mice
Procedure: The acute toxicity of NTrp-p-(n-dodecyloxy)benzoyl-A―21978C, when administered intravenously to mice and expressed as LDso, was 67.5 mg/kg.

Structure (SMILES) | Solubility [1] | stability (alkaline hydrolysis) [2] | acute toxicity expressed as LDso (acute toxicity in mice)
C[C@H](CC(=O)O)[C@@H]1NC(=O)[C@@H](CO)NC(=O)CNC(=O)[C@H](CC(=O)O)NC(=O)[C@@H](C)NC(=O)[C@H](CC(=O)O)NC(=O)[C@H](CCCN)NC(=O)CNC(=O)[C@@H](NC(=O)[C@H](CC(=O)O)NC(=O)[C@H](CC(N)=O)NC(=O)[C@@H](N)Cc2c[nH]c3ccccc23)[C@@H](C)OC(=O)[C@H](CC(=O)c2ccccc2N)NC1=O [A-21978C nucleus] | soluble in water | increasingly subject to alkaline hydrolysis | 
CCCCCCCCCCCCOc1ccc(C(=O)N[C@@H](Cc2c[nH]c3ccccc23)C(=O)N[C@@H](CC(N)=O)C(=O)N[C@@H](CC(=O)O)C(=O)N[C@@H]2C(=O)NCC(=O)N[C@@H](CCCN)C(=O)N[C@@H](CC(=O)O)C(=O)N[C@H](C)C(=O)N[C@@H](CC(=O)O)C(=O)NCC(=O)N[C@H](CO)C(=O)N[C@@H]([C@H](C)CC(=O)O)C(=O)N[C@@H](CC(=O)c3ccccc3N)C(=O)O[C@@H]2C)cc1 [NTrp-p-(n-dodecyloxy)benzoyl-A―21978C, NTrp-P-(n-dodecyloxy)benzoyl-A-21978C Nucleus] |  |  | 67.5 mg/kg
